US12479820B2, “Pyridin-3-yl derivatives” (Idorsia Pharmaceuticals Ltd, priority 2019, dated 2025)

Biological target: T1, human LPA1 receptor (Homo sapiens, UniProt Q92633)
T1 construct: TEV protease site; Gal4-VP16 transcription factor; host or cells: Tango EDG2-bla U2OS cells
Experiment: Beta-arrestin recruitment assay to determine IC50 values for human LPAR1
Assay type: cell-based
Conditions: Tango EDG2-bla U2OS cells, antagonist assay, LPA 18:1 500 nM final
From the text: Beta-Arrestin Recruitment Assay to Determine IC50 Values for Human LPAR1
The Tango™ EDG2-bla U2OS cells are obtained from Invitrogen. These cells contain the human LPA1 receptor cDNA linked to a TEV protease site and a Gal4-VP16 transcription factor integrated into the Tango™ GPCR-bla U2OS parental cell line. This parental cell line stably expresses a beta-arrestin/TEV protease fusion protein and the beta-lactamase (bla) reporter gene under the control of a UAS response element. Upon LPA (agonist) binding, LPA1 receptor gets activated, leading to arrestin-protease recruitment and proteolytic release of the transcription factor: The transcription factor then regulates transcription of a beta-lactamase reporter construct, which is measured upon addition of the live-cell substrate.
10′000 Tango™ EDG2-bla U2OS cells are seeded in a 384-well black with clear bottom plate in 30 μl Freestyle 293 Expression Medium (Invitrogen) and incubated for 20 h at 37° C., 5% CO2. For antagonist assays, 5 μl of test compound (dilution series in DMSO/Freestyle 293 Expression medium/0.1% fatty acid free BSA (Sigma)) or buffer control are added per well and incubated for 30 min at 37° C., 5% CO2. 5 μl of LPA 18:1 (500 nM final) (solution in Freestyle 293 Expression medium/0.1% fatty acid free BSA (Sigma)) are added per well and the plate incubated for 16 h at 37° C., 5% CO2. Cells are then loaded with LiveBLAzer-FRET™ B/G Substrate (Invitrogen) for 2 h in the dark and the fluorescence emission at 460 nm and 530 nm is measured using the SynergyMx reader (BioTek). Following the background subtraction from both channels, the 460/530 nm emission ratio for each well is calculated, then plotted and fitted to a 4-parameter logistic function to obtain IC50 values. IC50 is the concentration of antagonist inhibiting 50% of the maximal response.

T1 sequence (Q92633 whole entry, the tested form may be a part): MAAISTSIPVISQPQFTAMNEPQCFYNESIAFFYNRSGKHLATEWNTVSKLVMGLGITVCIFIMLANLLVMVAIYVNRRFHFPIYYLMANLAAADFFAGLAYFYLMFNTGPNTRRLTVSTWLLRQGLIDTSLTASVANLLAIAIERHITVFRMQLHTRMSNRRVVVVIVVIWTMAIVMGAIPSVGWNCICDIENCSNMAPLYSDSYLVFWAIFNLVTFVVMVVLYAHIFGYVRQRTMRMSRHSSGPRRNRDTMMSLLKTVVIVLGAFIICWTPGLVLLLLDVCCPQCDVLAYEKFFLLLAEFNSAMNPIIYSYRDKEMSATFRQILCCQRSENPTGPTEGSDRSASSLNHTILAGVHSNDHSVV

IC50 [µM]	Structure (SMILES)
0.003	COc1cc(Cl)ncc1NC(=O)C1(c2c(F)cccc2C(C)C)CNC1 [Example 13, N-(6-chloro-4-methoxypyridin-3-yl)-3-(2-fluoro-6-isopropylphenyl)azetidine-3-carboxamide]
0.043	COC(=O)C(C)(C)CC(=O)N1CC(C(=O)Nc2cnc(Cl)cc2OC)(c2ccccc2C(C)C)C1 [Example 19-17, methyl 4-(3-((6-chloro-4-methoxypyridin-3-yl)carbamoyl)-3-(2-isopropylphenyl)azetidin-1-yl)-2,2-dimethyl-4-oxobutanoate]
0.002	COc1cc(Cl)ncc1NC(=O)C1(c2ccccc2C(C)C)CN(c2ccnc(C)c2F)C1 [Example 24-3, N-(6-chloro-4-methoxypyridin-3-yl)-1-(3-fluoro-2-methylpyridin-4-yl)-3-(2-isopropylphenyl)azetidine-3-carboxamide]
0.201	COc1cc(Cl)ncc1NC(=O)C1(c2ccccc2C(C)C)CN(C(=O)N2CCOCC2)C1 [Example 22-16, N-(6-chloro-4-methoxypyridin-3-yl)-3-(2-isopropylphenyl)-1-(morpholine-4-carbonyl)azetidine-3-carboxamide]
0.047	COc1cc(Cl)ncc1NC(=O)C1(c2ccccc2C(C)C)CN(CCCC(C)(C)C(=O)O)C1 [Example 18-25, 5-(3-((6-chloro-4-methoxypyridin-3-yl)carbamoyl)-3-(2-isopropylphenyl)azetidin-1-yl)-2,2-dimethylpentanoic acid]
0.003	COc1cc(Cl)ncc1NC(=O)C1(c2ccccc2C2CCCC2)CNC1 [Example 17, N-(6-chloro-4-methoxypyridin-3-yl)-3-(2-cyclopentylphenyl)azetidine-3-carboxamide]
0.028	COc1cc(Cl)ncc1NC(=O)C1(c2ccccc2C(C)C)CN(C[C@@H](O)CO)C1 [Example 18-12, (R)-N-(6-chloro-4-methoxypyridin-3-yl)-1-(2,3-dihydroxypropyl)-3-(2-isopropylphenyl)azetidine-3-carboxamide]
0.27	COc1cc(Cl)ncc1NC(=O)C1(c2ccccc2C(C)C)CN(C(=O)c2cc(O)no2)C1 [Example 19-5, N-(6-chloro-4-methoxypyridin-3-yl)-1-(3-hydroxyisoxazole-5-carbonyl)-3-(2-isopropylphenyl)azetidine-3-carboxamide]
0.021	COc1cc(Br)ncc1NC(=O)C1(c2ccccc2C(C)C)CN(C(=O)CC(C)(C)C(=O)O)C1 [Example 19-19, 4-(3-((6-bromo-4-methoxypyridin-3-yl)carbamoyl)-3-(2-isopropylphenyl)azetidin-1-yl)-2,2-dimethyl-4-oxobutanoic acid]
0.003	COC[C@H](C)Oc1cc(Cl)ncc1NC(=O)C1(c2ccccc2C(C)C)CN(C(=O)NC2CC2)C1 [Example 22-6, (S)-N3-(6-chloro-4-((1-methoxypropan-2-yl)oxy)pyridin-3-yl)-N1-cyclopropyl-3-(2-isopropylphenyl)azetidine-1,3-dicarboxamide]
1.2	COc1cc(C(F)(F)F)ncc1NC(=O)C1(c2ccccc2C(C)C)CNC1 [Example 12, 3-(2-isopropylphenyl)-N-(4-methoxy-6-(trifluoromethyl)pyridin-3-yl)azetidine-3-carboxamide]
0.043	COc1cc(Cl)ncc1NC(=O)C1(c2ccccc2C(C)C)CN(C(=O)Cn2cc(C)nn2)C1 [Example 19-8, N-(6-chloro-4-methoxypyridin-3-yl)-3-(2-isopropylphenyl)-1-(2-(4-methyl-1H-1,2,3-triazol-1-yl)acetyl)azetidine-3-carboxamide]
0.034	COc1cc(Cl)ncc1NC(=O)C1(c2ccccc2C(C)C)CN(S(=O)(=O)C2COC2)C1 [Example 20-5, N-(6-chloro-4-methoxypyridin-3-yl)-3-(2-isopropylphenyl)-1-(oxetan-3-ylsulfonyl)azetidine-3-carboxamide]
0.005	COc1cc(Cl)ncc1NC(=O)C1(c2cc(F)ccc2C(C)C)CN(S(N)(=O)=O)C1 [Example 21-15, N-(6-chloro-4-methoxypyridin-3-yl)-3-(5-fluoro-2-isopropylphenyl)-1-sulfamoylazetidine-3-carboxamide]
0.069	COCCOC(=O)N1CC(C(=O)Nc2cnc(Cl)cc2OC)(c2ccccc2C(C)C)C1 [Example 23-2, 2-Methoxyethyl 3-((6-chloro-4-methoxypyridin-3-yl)carbamoyl)-3-(2-isopropylphenyl)azetidine-1-carboxylate]
0.1	COc1cc(F)ncc1NC(=O)C1(c2ccccc2C(C)C)CN(C(=O)CC(C)(C)C(=O)O)C1 [Example 19-23, 4-(3-((6-fluoro-4-methoxypyridin-3-yl)carbamoyl)-3-(2-isopropylphenyl)azetidin-1-yl)-2,2-dimethyl-4-oxobutanoic acid]
0.052	COc1cc(Cl)ncc1NC(=O)C1(c2ccccc2C(C)C)CN(C(=O)Cn2cc(CO)nn2)C1 [Example 19-9, N-(6-chloro-4-methoxypyridin-3-yl)-1-(2-(4-(hydroxymethyl)-1H-1,2,3-triazol-1-yl)acetyl)-3-(2-isopropylphenyl)azetidine-3-carboxamide]
0.005	COc1cc(Cl)ncc1NC(=O)C1(c2ccccc2C(C)C)CN(c2ncncc2C)C1 [Example 24-13, N-(6-chloro-4-methoxypyridin-3-yl)-3-(2-isopropylphenyl)-1-(5-methylpyrimidin-4-yl)azetidine-3-carboxamide]
0.004	COc1cc(Cl)ncc1NC(=O)C1(c2ccccc2C2CCCC2)CN(S(N)(=O)=O)C1 [Example 21-19, N-(6-chloro-4-methoxypyridin-3-yl)-3-(2-cyclopentylphenyl)-1-sulfamoylazetidine-3-carboxamide]
0.074	COc1cc(Cl)ncc1NC(=O)C1(c2ccccc2C(C)C)CN(Cc2cn[nH]c2)C1 [Example 18-14, 1-((1H-pyrazol-4-yl)methyl)-N-(6-chloro-4-methoxypyridin-3-yl)-3-(2-isopropylphenyl)azetidine-3-carboxamide]
0.002	COc1cc(Cl)ncc1NC(=O)C1(c2ccccc2C(C)C)CN(c2cc(C)ncc2F)C1 [Example 24-4, N-(6-chloro-4-methoxypyridin-3-yl)-1-(5-fluoro-2-methylpyridin-4-yl)-3-(2-isopropylphenyl)azetidine-3-carboxamide]
0.608	COCCS(=O)(=O)N1CC(C(=O)Nc2cnc(Cl)cc2OC)(c2ccccc2C(C)C)C1 [Example 20-2, N-(6-chloro-4-methoxypyridin-3-yl)-3-(2-isopropylphenyl)-1-((2-methoxyethyl)sulfonyl)azetidine-3-carboxamide]
0.004	COc1cc(Cl)ncc1NC(=O)C1(c2ccccc2C(C)C)CNC1 [Example 3, N-(6-chloro-4-methoxypyridin-3-yl)-3-(2-isopropylphenyl)azetidine-3-carboxamide]
0.347	COc1cc(Cl)ncc1NC(=O)C1(c2ccccc2C(C)C)CN(CCCc2nnn[nH]2)C1 [Example 18-5, 1-(3-(1H-tetrazol-5-yl)propyl)-N-(6-chloro-4-methoxypyridin-3-yl)-3-(2-isopropylphenyl)azetidine-3-carboxamide]
0.015	CCOC(=O)c1coc(N2CC(C(=O)Nc3cnc(Cl)cc3OC)(c3ccccc3C(C)C)C2)n1 [Example 24-25, ethyl 2-(3-((6-chloro-4-methoxypyridin-3-yl)carbamoyl)-3-(2-isopropylphenyl)azetidin-1-yl)oxazole-4-carboxylate]
0.004	COc1cc(Cl)ncc1NC(=O)C1(c2c(F)cccc2C(C)C)CN(S(N)(=O)=O)C1 [Example 21-14, N-(6-chloro-4-methoxypyridin-3-yl)-3-(2-fluoro-6-isopropylphenyl)-1-sulfamoylazetidine-3-carboxamide]
0.252	COCCOc1cc(Cl)ncc1NC(=O)C1(c2ccccc2C(C)C)CNC1 [Example 8, N-(6-chloro-4-(2-methoxyethoxy)pyridin-3-yl)-3-(2-isopropylphenyl)azetidine-3-carboxamide]
0.012	COC(=O)c1ccc(N2CC(C(=O)Nc3cnc(Cl)cc3OC)(c3ccccc3C(C)C)C2)nc1 [Example 24-21, methyl 6-(3-((6-chloro-4-methoxypyridin-3-yl)carbamoyl)-3-(2-isopropylphenyl)azetidin-1-yl)nicotinate]
0.015	COCCNC(=O)N1CC(C(=O)Nc2cnc(Cl)cc2OC)(c2ccccc2C(C)C)C1 [Example 22-10, N3-(6-chloro-4-methoxypyridin-3-yl)-3-(2-isopropylphenyl)-N1-(2-methoxyethyl)azetidine-1,3-dicarboxamide]
0.385	COc1cc(Cl)ncc1NC(=O)C1(c2ccccc2C(C)C)CN(C(=O)C2COC2)C1 [Example 19-4, N-(6-chloro-4-methoxypyridin-3-yl)-3-(2-isopropylphenyl)-1-(oxetane-3-carbonyl)azetidine-3-carboxamide]
